Experimental data as given in ChEMBL document CHEMBL1136374, “Inactivation of S-adenosyl-L-homocysteine hydrolase with novel 5'-thioadenosine derivatives. Antiviral effects” (Bioorg Med Chem Lett, 2003).
Values after ≈ are worked out from the molar mass of the structure shown. Active and inactive are the calls of the source. The calls are words filed in the database; no cut-off is given here.

Experiments:
Adenosylhomocysteinase [1] = target: T1, Adenosylhomocysteinase (Homo sapiens, UniProt P23526); assay: Change in the S-Adenosyl-homocysteine hydrolase enzyme's NAD+ content until complete inactivation was determined
Target sequence in this assay (P23526 2-432 limits assumed): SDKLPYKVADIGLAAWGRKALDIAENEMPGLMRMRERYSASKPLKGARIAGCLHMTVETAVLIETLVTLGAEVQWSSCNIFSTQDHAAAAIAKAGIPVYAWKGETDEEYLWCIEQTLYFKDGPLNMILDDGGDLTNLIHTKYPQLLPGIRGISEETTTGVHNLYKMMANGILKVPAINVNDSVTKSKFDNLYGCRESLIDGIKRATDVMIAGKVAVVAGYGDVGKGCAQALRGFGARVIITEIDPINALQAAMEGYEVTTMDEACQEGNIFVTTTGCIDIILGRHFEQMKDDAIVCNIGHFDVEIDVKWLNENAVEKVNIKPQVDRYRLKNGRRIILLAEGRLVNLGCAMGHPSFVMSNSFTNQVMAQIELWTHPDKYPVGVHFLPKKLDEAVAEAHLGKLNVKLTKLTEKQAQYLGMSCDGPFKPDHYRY

E6SM = assay: Compound tested for cytotoxicity in human embryonic skin muscle E6SM cell cultures; format: functional
Adenosylhomocysteinase [2] = target: T1, Adenosylhomocysteinase; assay: Enzyme kinetic property: kinact value was determined
Target sequence in this assay (P23526 2-432 limits assumed): as above

Adenosylhomocysteinase [3] = target: T1, Adenosylhomocysteinase; assay: Binding affinity against S-Adenosyl-homocysteine hydrolase was determined
Target sequence in this assay (P23526 whole entry): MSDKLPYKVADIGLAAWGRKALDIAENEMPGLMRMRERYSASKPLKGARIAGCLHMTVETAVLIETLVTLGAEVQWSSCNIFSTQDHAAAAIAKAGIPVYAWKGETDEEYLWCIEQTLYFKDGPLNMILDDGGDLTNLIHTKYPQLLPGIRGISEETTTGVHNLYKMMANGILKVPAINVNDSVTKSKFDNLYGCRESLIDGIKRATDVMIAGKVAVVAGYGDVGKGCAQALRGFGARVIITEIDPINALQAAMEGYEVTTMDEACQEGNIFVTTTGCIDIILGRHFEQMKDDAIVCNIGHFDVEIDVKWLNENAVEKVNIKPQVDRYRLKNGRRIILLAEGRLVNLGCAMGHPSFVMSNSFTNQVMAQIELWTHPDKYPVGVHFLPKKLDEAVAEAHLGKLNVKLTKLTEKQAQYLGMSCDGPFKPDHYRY

HEL [4] = assay: Antiviral activity against Cytomegalovirus virus (CMV) strain Davis in HEL cells; No specific activity; format: functional, cell-based; details: Homo sapiens
Punta Toro virus = assay: Antiviral activity against Punta Toro virus; No activity; format: functional, organism-based
HEL [5] = assay: Antiviral activity against Cytomegalovirus virus (CMV) strain AD-169 in HEL cells; No specific activity; format: functional, cell-based; details: Homo sapiens
Sindbis virus = assay: Antiviral activity against Sindbis; No activity; format: functional, organism-based
Vero = assay: Compound tested for cytotoxicity in vero cell culture was determined; format: functional, Chlorocebus sabaeus
Coxsackievirus B4 = assay: Antiviral activity against Coxsackie B4 virus; No activity; format: functional, organism-based
Tacaribe virus = assay: Activity against Taccaribe virus was determined; format: functional; details: Mammarenavirus tacaribeense
Human respirovirus 3 = assay: Antiviral activity against Parainfluenza-3; No activity; format: functional, organism-based
Junin virus = assay: Activity against Junin virus was determined; format: functional; details: Mammarenavirus juninense

SMILES | NAD (Adenosylhomocysteinase [1]) | MTC (E6SM) | K inact (Adenosylhomocysteinase [2]) | Ki (Adenosylhomocysteinase [3]) | MIC (HEL [4]) | MIC (Punta Toro virus) | MIC (HEL [5]) | MIC (Sindbis virus) | MTC (Vero) | MIC (Coxsackievirus B4) | MIC (Tacaribe virus) | MIC (Human respirovirus 3) | MIC (Junin virus)
N#CSC[C@H]1OC(n2cnc3c(N)ncnc32)[C@H](O)[C@@H]1O (stereo partly specified) | 16% | >650 µM | 0.59 min⁻¹ | 67 µM | – | – | – | – | – | – | – | – | –
C=CSC[C@H]1OC(n2cnc3c(N)ncnc32)[C@H](O)[C@@H]1O (stereo partly specified) | 18% | >650 µM | 0.07 min⁻¹ | 4 µM | inactive | inactive | inactive | inactive | >650 µM | inactive | 40 µM (≈ 12.4 µg/mL) | inactive | 65 µM (≈ 20.1 µg/mL)
C#CSC[C@H]1OC(n2cnc3c(N)ncnc32)[C@H](O)[C@@H]1O (stereo partly specified) | 36% | 30 µM | 0.12 min⁻¹ | 10 µM | – | – | – | – | – | – | – | – | –
